According to patent publication US8450525B2, “Histone deacetylase inhibitors” (Orchid Chemicals & Pharmaceuticals Limited, priority 2007, dated 2013):

Experiments:
[1] = system: HCT 116 (colon) cells; assay: Anti-cancer screen, growth inhibition (MTT); format: cell-based; conditions: Homo sapiens, HCT-116 cells, 48 hours of incubation
Summary of the method: (§1)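 MTT added for 3 h at 37° C, formazan dissolved in DMSO and A570 read. A T0 plate was measured at compound addition.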

[2] = system: NCI-H460 (lung) cells; assay: Anti-cancer screen, growth inhibition (MTT); format: cell-based; conditions: Homo sapiens, 48 hours of incubation
Summary of the method: as §1

[3] = system: U251 (glioma) cells; assay: Anti-cancer screen, growth inhibition (MTT); format: cell-based; conditions: Homo sapiens, U-251 cells, 48 hours of incubation
Summary of the method: as §1

[4] = system: T1, HDAC (Mouse Liver Extract); assay: HDAC inhibition assay using Boc-Lys(Ac)-AMC substrate, mouse liver enzyme; format: biochemical;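 on IC50: IC50 for inhibition of HDAC activity in mouse liver extract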
T1 construct: Mouse liver enzyme (10 mg/ml) was diluted 1:6 with HDAC buffer

Row | SMILES | GI50 [1] [µM] | GI50 [2] [µM] | GI50 [3] [µM] | HDAC Inhibition % (1 μM) [4] [%] | HDAC Inhibition % (10 μM) [4] [%] | IC50 [4] [µM]
1 | COc1cccc(/C(=C\c2ccc(/C=C/C(=O)NCCCCCC(=O)NO)cc2)C(=O)NC2CC2)c1 [Example 85, 6-((1E)-3-(4-(3-(Cyclopropylamino)-2-(3-methoxyphenyl)-3-oxoprop-1-en-1-yl)phenyl)acrylamido)-N-hydroxyhexanamide] | 26 | 69 | 10.1 | 96.0 | 100.0 | 
2 | O=C(/C=C/c1ccc(/C=C(/C(=O)NC2CC2)c2ccc(F)cc2)cc1)NCCCCCC(=O)NO [Example 75, 6-((1E)-3-(4-(3-(Cyclopropylamino)-2-(4-fluorophenyl)-3-oxoprop-1-en-1-yl)phenyl)acrylamido)-N-hydroxyhexanamide] | 23 | 38 | 30 | 70.3 | 94.4 | 
3 | O=C(CCCCCNC(=O)c1ccc(/C=C(/C(=O)NC2CC2)c2ccccc2)cc1)NO [Example 161] | 8.2 | 5.3 | 3.2 | 87.8 | 97.5 | 0.006
4 | O=C(NC1CC1)/C(=C/c1ccc(C(=O)NO)cc1)c1ccccc1 [Example 102, 4-(3-(Cyclopropylamino)-2-phenyl-3-oxoprop-1-en-1-yl)-N-hydroxybenzamide] | 17 | 48 | 19 | 50.1 | 80.4 | 
5 | O=C(NC1CC1)/C(=C/c1ccc(C(=O)NCc2ccc(C(=O)NO)cc2)cc1)c1ccc(F)cc1Cl [Example 155, 4-(3-(Cyclopropylamino)-2-(2-chloro-4-fluorophenyl)-3-oxoprop-1-en-1-yl)-N-(4-(hydroxycarbamoyl)benzyl)benzamide] | 30 | 16 | 26 | 88.8 | 99.3 | 
6 | Cc1ccc(/C(=C\c2ccc(/C=C/C(=O)NCc3ccc(C(=O)NO)cc3)cc2)C(=O)NC2CC2)cc1 [Example 92, 4-(((1E)-3-(4-(3-(Cyclopropylamino)-2-(4-methylphenyl)-3-oxoprop-1-en-1-yl)phenyl)acrylamido)methyl)-N-hydroxybenzamide] | 3 | 0.1 | 24 | 85.8 | 99.7 | 0.0017
7 | O=C(/C=C/c1ccc(/C=C(/C(=O)NC2CC2)c2cccc(Cl)c2)cc1)NCc1ccc(C(=O)NO)cc1 [Example 91, 4-(((1E)-3-(4-(3-(Cyclopropylamino)-2-(3-chlorophenyl)-3-oxoprop-1-en-1-yl)phenyl)acrylamido)methyl)-N-hydroxybenzamide] | 0.2 | 25 | 0.2 | 99.8 | 100.0 | < 0.001
8 | Cc1ccc(/C(=C\c2ccc(C(=O)NCc3ccc(C(=O)NO)cc3)cc2)C(=O)NC2CC2)cc1 [Example 148, 4-(3-(Cyclopropylamino)-2-(4-methylphenyl)-3-oxoprop-1-en-1-yl)-N-(4-(hydroxycarbamoyl)benzyl)benzamide] | 2 | 0.1 | 0.08 | 86.9 | 97.8 | 0.022
9 | O=C(/C=C/c1ccc(/C=C(/C(=O)NC2CC2)c2ccccc2)cc1)NCCCCCC(=O)NO [Example 82, 6-((1E)-3-(4-(3-(cyclopropylamino)-2-phenyl-3-oxoprop-1-enyl)phenyl)acrylamido)-N-hydroxyhexanamide] | 3 | 1 | 7 | 93.2 | 98.6 | 0.0085
